# In patent US20100009934A1, “BETA ADRENERGIC RECEPTOR AGONISTS FOR THE TREATMENT OF B-CELL PROLIFERATIVE DISORDERS” (CombinatoRx, Incorporated, priority 2008, published 2010):
# Values joined by “and” are separate entries in the source; they are usually repeats but may differ in a detail not shown here. Equal values may be shown once. Read-outs that look alike come from different tables or passages of the source.
# Tests used:
# [1] = system: Human Multiple Myeloma Cells (MM.1S); experiment: cells; settings: MM1.S
# [2] = system: Human Multiple Myeloma Cells (MM.1S); experiment: Anti-proliferation assay (ATPLite, 72 hours), MM.1S
# [3] = system: Human Multiple Myeloma Cells (EJM); experiment: Anti-proliferation assay (ATPLite, 72 hours), EJM; settings: DEX μM r7-r15: 2.03, 0.675, 0.225, 0.075, 0.025, 0.00834, 0.00278, 0.00093, 0
# [4] = system: Human Multiple Myeloma Cells (ANBL-6); experiment: Anti-proliferation assay (ATPLite, 72 hours), ANBL-6; settings: for Antiproliferative Activity: Salmeterol 0.00000506 μM
# RPMI-8226 cells = settings: 2 nM salmeterol for 5 hours, soft agar, three weeks; 740 colonies without drugs
# Description: The effect of BAR agonists on cells grown in soft agar was also determined. This approach allows the measurement of long term cell viability after single agent or combination treatment. […] Cells were washed and plated in soft agar. After three weeks colonies were counted to determine cell viability.
# [5] = system: Human Multiple Myeloma Cells (MM.1S) cultured in the presence of BAR agonist for one month; experiment: Antiproliferative activity on MM.1S cultured one month in the presence of salmeterol or salbutamol; assay type: cell-based; settings: for percent inhibition of cell proliferation: MM.1S cultured in Salmeterol for one month (final 64 nM), DEX (μM): 2.0, 0.666, 0.23, 0.074, 0.024, 0.0082, 0.00274, 0.0009, 0
# From the text: A recurrent problem in cancer therapy is that prolonged exposure of tumor cells to chemotherapeutic agents can generate cells resistant to agents that initially have antiproliferative or cell killing activity. […] Cells cultured for one month in the presence of BAR agonist were washed to remove drug and put into 384 well plates for 9×9 dose matrix combination screening with BAR agonists and dexamethasone.
# MM.1S cells [6] = experiment: Annexin V/PI FACS assay of control MM.1S and cells cultured one month with salmeterol or salbutamol; assay type: cell-based, human; settings: 250 pM salmeterol
# Description: Forty eight hours later, the percent of cells positive for Annexin V and propidium iodide (PI) was determined using FACS (FIG. 5).
# [7] = system: multiple myeloma tumor cells from patients; experiment: MTT cell viability assay, multiple myeloma patient tumor cells; settings: Homo sapiens, 48 h
# From the text: Tumor cells were obtained via bone marrow aspirates and affinity selected using CD138-linked magnetic beads.
# [8] = system: Human Multiple Myeloma Cells (MM.1S); settings: 10 ng/ml IL-6 vs no IL-6 (Tables 52 and 53)
# [9] = system: Diffuse Large B-Cell Lymphoma Cell Line OCI-Ly10; experiment: Anti-proliferation assay (ATPLite, 72 hours), OCI-ly10; assay type: cell-based; settings: DEX μM r7-r15: 0.101, 0.033666667, 0.011222222, 0.003740741, 0.001246914, 0.000415638, 0.000138546, 0.000046182, 0
# From the text: Combinations were ranked initially by Additivity Excess Volume, which is defined as ADD Volume=ΣCX, CY (Idata−ILoewe), where ILoewe(CX, CY) is the inhibition that satisfies (CX/ECX)+(CY/ECY)=1, and ECX,Y are the effective concentrations at ILoewe for the single agent curves.
# [10] = system: RPMI-8226 multiple myeloma (MM) xenograft; settings: Day 19; 10 mg/kg salmeterol, 0.5 mg/kg bortezomib, or both
# Description: Dexamethasone was administered by intraperitoneal (IP) injection daily for thirty-six treatments (QD×36). Bortezomib was injected intravenously (IV) every third day for six treatments (Q3D×6).
# Group 1—Vehicle (90% PBS+10% EtOH)
# Significant endpoints included mean tumor growth inhibition (TGI) or regression, animal weight loss, and potential toxicity. […] Animals were implanted with cancer cells harvested from tissue culture and allowed to establish tumors in SCID mice. Treatment initiated when the mean tumor volume reached 137 mm^3 in size.
# MM.1S cells [11] = experiment: Annexin V / propidium iodide apoptosis assay, MM.1S; assay type: cell-based, human; settings: 0.3 nM salmeterol, 72 hours (FIG. 2)
# Description: Effects on cell viability were determined by measuring the percent of cells that were annexin V positive (an early marker for apoptosis) and by measuring the percent of cells propidium iodide (PI) positive, an indicator that cellular membranes are compromised and a marker of cell death.
# [12] = read-out: percent inhibition of cell proliferation, +10 ng/ml IL-6, Salmeterol […], DEX (μM) by row: r9 0.15, r10 0.076, r11 0.038, r12 0.019, r13 0.0096, r14 0
# [13] = read-out: percent inhibition of cell proliferation, salmeterol […], 10 ng/mL IL-6
# [14] = read-out: percent inhibition of cell proliferation, salmeterol […], no IL-6
# [15] = Homo sapiens, MM1.S, read-out: percent inhibition of cell proliferation
# [16] = read-out: Reduction in Cell Viability
smiles,measurement,setting,value
OCc1cc(C(O)CNCCCCCCOCCCCc2ccccc2)ccc1O (centres unmarked) [salmeterol],inhibition at 32 pM,[1]; [12],22%
same,inhibition at […],[1]; [12],52%
same,inhibition at 32 pM,"[1]; read-out: percent inhibition of cell proliferation, no IL-6, Salmeterol […], DEX (μM) by row: r9 0.15, r10 0.076, r11 0.038, r12 0.019, r13 0.0096, r14 0",21%
same,inhibition at 100 fM,"[1]; read-out: percent inhibition of cell proliferation, salmeterol 0.1 pM, 10 ng/mL IL-6",19%
same,inhibition at 100 fM,"[1]; read-out: percent inhibition of cell proliferation, salmeterol 0.1 pM, no IL-6",11%
same,inhibition at 200 fM,"[1]; read-out: percent inhibition of cell proliferation, salmeterol 0.2 pM, 10 ng/mL IL-6",30%
same,inhibition at 200 fM,"[1]; read-out: percent inhibition of cell proliferation, salmeterol 0.2 pM, no IL-6",25%
same,inhibition at 400 fM,"[1]; read-out: percent inhibition of cell proliferation, salmeterol 0.4 pM, 10 ng/mL IL-6",36%
same,inhibition at 400 fM,"[1]; read-out: percent inhibition of cell proliferation, salmeterol 0.4 pM, no IL-6",30%
same,inhibition at […],"[1]; read-out: percent inhibition of cell proliferation, salmeterol 160 pM, 10 ng/mL IL-6",59%
same,inhibition at […],"[1]; read-out: percent inhibition of cell proliferation, salmeterol 160 pM, no IL-6",50%
same,inhibition at […],"[1]; read-out: percent inhibition of cell proliferation, salmeterol 320 pM, 10 ng/mL IL-6",66%
same,inhibition at […],"[1]; read-out: percent inhibition of cell proliferation, salmeterol 320 pM, no IL-6",59%
same,inhibition at 25 fM,[1]; [13],2.8%
same,inhibition at 51 fM,[1]; [13],8.6%
same,inhibition at 810 fM,[1]; [13],54%
same,inhibition at 25 fM,[1]; [14],5%
same,inhibition at 51 fM,[1]; [14],6.7%
same,inhibition at 810 fM,[1]; [14],43%
same,inhibition at 9.1 pM,[2]; [15],4.9%
same,inhibition at 27 pM,[2]; [15],7.1%
same,inhibition at 80 pM,[2]; [15],25%
same,inhibition at 0.02 µM,[2]; [15],59%
same,percent inhibition of cell proliferation,"[2]; SAHA 0 μM (single agent), Salmeterol (nM) by row: r7 0.011, r8 0.0036, r9 0.0012, r10 0.0004, r11 0.00013, r12 0.000045",70%
same,Antiproliferative Activity,"[2]; Salmeterol 0.00000506 μM, BORT μM r7-r15: 0.0405, 0.0203, 0.0101, 0.00506, 0.00253, 0.00127, 0.000633, 0.000316, 0",16.9%
same,Antiproliferative Activity,[3]; Salmeterol 0.000158 μM,38.1
same,Antiproliferative Activity,[3]; Salmeterol 0.000316 μM,47.7
same,Antiproliferative Activity,[3]; Salmeterol 0.00506 μM,47.9
same,Antiproliferative Activity,"[4]; DEX μM r7-r15: 2.03, 0.675, 0.225, 0.075, 0.025, 0.00834, 0.00278, 0.00093, 0",18.6
same,Antiproliferative Activity,"[4]; LEN μM r7-r15: 4.04, 2.02, 1.01, 0.505, 0.253, 0.126, 0.0632, 0.0316, 0",34.7
same,percent inhibition of cell proliferation,"[4]; Trequinsin 0 μM (single agent), SAL (μM): 0.0203, 0.0101, 0.00506, 0.00253, 0.00127, 0.000633, 0.000316, 0.000158",54% and 55.7% and 58.4% and 54.8% and 50.7% and 58% and 54.7% and 55%
same,"colony number per 10,000 cells plated",RPMI-8226 cells,360 colonies
same,percent inhibition of cell proliferation,[5]; Salmeterol 0.00008 μM,6.1%
same,percent inhibition of cell proliferation,[5]; Salmeterol 0.02 μM,5.6%
same,inhibition of proliferation,"[5]; […] salmeterol, cells cultured one month in salmeterol (64 nM), Table 48",4.1%
same,single agent sensitivity after culture in 64 nM salmeterol,[5]; cells cultured one month in salmeterol (Table 48),no longer sensitive
same,sensitivity (Annexin V/PI),"MM.1S cells [6]; cells treated for one month with salmeterol or salbutamol, 48 hours",not sensitive
same,Annexin V/PI+ cells,"MM.1S cells [6]; control cells, 48 hours (FIG. 5)",20%
same,cytotoxicity at 12.5 pM,[7]; [16],-0.2%
same,cytotoxicity at 25 pM,[7]; [16],12%
same,cytotoxicity at 50 pM,[7]; [16],13%
same,cytotoxicity at 0.0001 µM,[7]; [16],35%
same,cytotoxicity at 0.0002 µM,[7]; [16],40%
same,cytotoxicity at 0.0004 µM,[7]; [16],38%
same,cytotoxicity at 0.0008 µM,[7]; [16],44%
same,cytotoxicity at 0.0004 µM,[7]; read-out: activity (reduction in cell viability),38%
same,viability at 0.001 µM,[7]; read-out: tumor cell viability,80%
same,effect of IL-6 on antiproliferative activity,[8],increased at each concentration tested
same,Antiproliferative Activity,[9]; Salmeterol 0.001055 μM,5.9
same,Antiproliferative Activity,[9]; Salmeterol 0.003165 μM,6.3
same,Antiproliferative Activity,[9]; Salmeterol 0.009494 μM,9.1
same,Antiproliferative Activity,[9]; Salmeterol 0.028481 μM,−0.6
same,Antiproliferative Activity,[9]; Salmeterol 0.085444 μM,6.3
same,Antiproliferative Activity,[9]; Salmeterol 0.256333 μM,27
same,tumor growth inhibition (TGI),[10],37%
same,induction of MM.1S cell apoptosis,MM.1S cells [11],~40%
